Laboratory results from the NIST ThermoML archive (doi:10.1021/je100687x).

What was measured:
[1] = 101 kPa, Liquid; for electrical conductivity: Crison GLP 31+ conductivimeter
[2] = xn = mol fraction of the nth substance listed; settings: 101 kPa, Liquid; for electrical conductivity: Crison GLP 31+ conductivimeter

CCCCn1cc[n+](C)c1.F[B-](F)(F)F [1-butyl-3-methylimidazolium tetrafluoroborate]
[1]
Settings	electrical conductivity [S/m]	viscosity [mPa·s]
288.15 K	–	173.5
298.15 K	0.352	99.2
308.15 K	–	61.3
318.15 K	–	40.4

CCn1cc[n+](C)c1.F[B-](F)(F)F [1-ethyl-3-methylimidazolium tetrafluoroborate]
[1]
Settings	electrical conductivity [S/m]	viscosity [mPa·s]
288.15 K	–	55.5
298.15 K	1.63	36.9
308.15 K	–	26
318.15 K	–	19.17

CCn1cc[n+](C)c1.F[B-](F)(F)F [1-ethyl-3-methylimidazolium tetrafluoroborate] + CCO
[2]
Settings	electrical conductivity [S/m]	viscosity [mPa·s]
288.15 K, x2 = 0	–	55.5
288.15 K, x2 = 0.0946	–	34.76
288.15 K, x2 = 0.1928	–	25.25
288.15 K, x2 = 0.2757	–	20.25
288.15 K, x2 = 0.3116	–	18.17
288.15 K, x2 = 0.3913	–	13.68
288.15 K, x2 = 0.4553	–	12.47
298.15 K, x2 = 0	1.63	36.9
298.15 K, x2 = 0.028	1.718	–
298.15 K, x2 = 0.057	1.843	–
298.15 K, x2 = 0.0719	1.911	–
298.15 K, x2 = 0.0946	–	24.46
298.15 K, x2 = 0.1034	2.061	–
298.15 K, x2 = 0.1624	2.287	–
298.15 K, x2 = 0.1928	–	18.33
298.15 K, x2 = 0.242	2.647	–
298.15 K, x2 = 0.2757	–	14.92
298.15 K, x2 = 0.3116	–	13.47
298.15 K, x2 = 0.3165	2.982	–
298.15 K, x2 = 0.3892	3.228	–
298.15 K, x2 = 0.3913	–	10.3
298.15 K, x2 = 0.4085	3.278	–
298.15 K, x2 = 0.4322	3.26	–
298.15 K, x2 = 0.4511	3.47	–
298.15 K, x2 = 0.4553	–	8.445
298.15 K, x2 = 0.4613	3.561	–
308.15 K, x2 = 0	–	26
308.15 K, x2 = 0.0946	–	18.04
308.15 K, x2 = 0.1928	–	13.88
308.15 K, x2 = 0.2757	–	11.39
308.15 K, x2 = 0.3116	–	10.38
308.15 K, x2 = 0.3913	–	8.074
308.15 K, x2 = 0.4553	–	6.668
318.15 K, x2 = 0	–	19.17
318.15 K, x2 = 0.0946	–	13.79
318.15 K, x2 = 0.1928	–	10.84
318.15 K, x2 = 0.2757	–	8.958
318.15 K, x2 = 0.3116	–	8.238
318.15 K, x2 = 0.3913	–	6.494
318.15 K, x2 = 0.4553	–	5.408

CCCCCCn1cc[n+](C)c1.F[B-](F)(F)F [1-hexyl-3-methylimidazolium tetrafluoroborate]
[1]
Settings	electrical conductivity [S/m]	viscosity [mPa·s]
288.15 K	–	357.5
298.15 K	0.126	190.9
308.15 K	–	110.3
318.15 K	–	68.5

CCCCCCCC[n+]1ccn(C)c1.F[B-](F)(F)F [1-methyl-3-octylimidazolium tetrafluoroborate]
[1]
Settings	electrical conductivity [S/m]	viscosity [mPa·s]
288.15 K	–	686
298.15 K	0.069	337.4
308.15 K	–	187.7
318.15 K	–	112.1

CCO [ethanol]
[1]
Settings	electrical conductivity [S/m]	viscosity [mPa·s]
288.15 K	–	1.296
298.15 K	3e-05	1.091
308.15 K	–	0.9153
318.15 K	–	0.7738

CCO [ethanol] + CCCCCCCC[n+]1ccn(C)c1.F[B-](F)(F)F
Settings	electrical conductivity [S/m]
[2], 298.15 K, x1 = 1	3e-05

CCO [ethanol] + CCn1cc[n+](C)c1.F[B-](F)(F)F
[2], x1 = 1
Settings	viscosity [mPa·s]
288.15 K	1.296
298.15 K	1.091
308.15 K	0.9153
318.15 K	0.7738
